Common to all, as to assay type: in vivo, C57BL/6 mice
The test system of experiment [1] is bleomycin-induced pulmonary fibrosis model. The experiment is described as follows: Comparison with comparative drugs: bleomycin-induced model, hydroxyproline and TGF-β. Particulars: 120 mg/kg/d intragastric, twice every day, 14 days, from two weeks after model; Day 15.
Experiment [2] relates to influenza A virus-induced pulmonary fibrosis model (FM1 strain of influenza A (H1N1) virus). The experiment in a line: Influenza A virus-induced pulmonary fibrosis model. Particulars: 120 mg/kg/d intragastric, 14 days; for Ashcroft scores: influenza A virus + bleomycin, lung tissue HE; for IL-1β / IL-6 / NF-κB / TNF-α: serum, influenza A (H1N1) FM1 + bleomycin, from two weeks after model. An excerpt: Experimental method: an in-vivo influenza A virus-induced pulmonary fibrosis model was established: C57BL/6 mice (with weights being 22-25 g) were randomly and evenly divided into a plurality of groups, including blank control group, model group, Nintedanib positive control group, hypoxanthine analogue A group, hypoxanthine analogue B group, hypoxanthine analogue C group, compound 1 group, compound 2 group . . . compound 12 group, with 9 mice in each group. On Day 1, the mice in blank control group were instilled with normal saline nasally, and the mice in other groups were all infected with a FM1 strain of an influenza A (H1N1) virus 30 (μL) through nasal instillation. On Day 2, the mice received 5 mg/kg bleomycin through tracheas to induce their pulmonary fibrosis. After the model was established for two weeks, the mice in each group were intragastrically administrated for intervention for consecutive 14 days; the mice in blank control group and model group intragastrically received the same dosage of the normal saline as those in drug groups; the mice in Nintedanib positive control group received Nintedanib (120 mg/kg); the mice in hypoxanthine analogue A group, hypoxanthine analogue B group and hypoxanthine analogue C group respectively received hypoxanthine analogue A (120 mg/kg/d), hypoxanthine analogue B (120 mg/kg/d) and hypoxanthine analogue C (120 mg/kg/d); and the mice in compound 1 group, compound 2 group . . . compound 12 group respectively received compound 1 (120 mg/kg/d), compound 2 (120 mg/kg/d) . . . compound 12 (120 mg/kg/d) prepared in example 1. After administration for consecutive 14 days, the mice were observed every day, and their weights and death conditions were recorded. After administration, blood was taken from eyeballs for immediately detecting the expression levels of NF-κB, TNF-α, IL-1 and IL-6 in serum, and lung tissues were taken for HE detection and Ashcroft scoring.

Experiment [3] concerns novel coronavirus-induced pulmonary fibrosis model (COVID-19 novel coronavirus strains). The experiment is described as follows: Novel coronavirus-induced pulmonary fibrosis model. Particulars: 120 mg/kg/d intragastric, 14 days; for Ashcroft scores: novel coronavirus + bleomycin, lung tissue HE; for IL-1β / IL-6 / NF-κB / TNF-α: serum, COVID-19 novel coronavirus + bleomycin, from two weeks after model. An excerpt: Experimental method: an in-vivo novel coronavirus-induced pulmonary fibrosis model was established: C57BL/6 mice (with weights being 22-25 g) were randomly and evenly divided into a plurality of groups, including blank control group, model group, Nintedanib positive control group, hypoxanthine analogue A group, hypoxanthine analogue B group, hypoxanthine analogue C group, compound 1 group, a compound 2 group . . . compound 12 group, with 9 mice in each group. On Day 1, the mice in blank control group were instilled with normal saline nasally, and the mice in other groups were all infected with COVID-19 novel coronavirus strains (30 μL) through nasal instillation. On Day 2, the mice received 5 mg/kg bleomycin through tracheas to induce their pulmonary fibrosis. After the model was established for two weeks, the mice in each group were intragastrically administrated for intervention for consecutive 14 days; the mice in blank control group and model group intragastrically received the same dosage of normal saline as those in drug groups; the mice in Nintedanib positive control group received Nintedanib (120 mg/kg); the mice in hypoxanthine analogue A group, hypoxanthine analogue B group and hypoxanthine analogue C group respectively received hypoxanthine analogue A (120 mg/kg/d), hypoxanthine analogue B (120 mg/kg/d) and hypoxanthine analogue C (120 mg/kg/d); and the mice in compound 1 group, compound 2 group . . . compound 12 group respectively received compound 1 (120 mg/kg/d), compound 2 (120 mg/kg/d) . . . compound 12 (120 mg/kg/d) prepared in example 1. After administration for consecutive 14 days, the mice were observed every day, and their weights and death conditions were recorded. After administration, blood was taken from eyeballs for immediately detecting the expression levels of NF-κB, TNF-α, IL-1 and IL-6 in serum, and lung tissues were taken for HE detection and Ashcroft scoring.

For `CC(C)Oc1ncnc2[nH]cnc12` [Compound 1], in experiment [1], the “Hydroxyproline in bronchoalveolar lavage fluids” value was 0.75 ± 0.04 µg/mg, the “Hydroxyproline in lung tissues” value was 1.45 ± 0.09 µg/mg, the “TGF-β in bronchoalveolar lavage fluids” value amounted to 4.05 ± 0.15 µg/L and the “TGF-β in lung tissues” value amounted to 24.15 ± 1.21 µg/L. For the same compound, in experiment [2], the Ashcroft scores is given as 1.21, the IL-1β was 28.8 pg/mL, the IL-6 was 63.9 pg/mL and the NF-κB was 26.5 pg/mL. Moreover, the TNF-α in experiment [2] is reported as 87.1 pg/mL. For the same compound, in experiment [3], the Ashcroft scores is given as 1.08, the IL-1β is recorded as 36.4 pg/mL, the IL-6 was 68.3 pg/mL and the NF-κB is given as 26.6 pg/mL. Moreover, in experiment [3], the TNF-α turned out to be 63.3 pg/mL.

As to `CC(C)n1cnc2c(=O)[nH]cnc21` [Compound 2], in experiment [1], the “Hydroxyproline in bronchoalveolar lavage fluids” value was 0.74 ± 0.05 µg/mg, the “Hydroxyproline in lung tissues” value worked out at 1.51 ± 0.08 µg/mg, the “TGF-β in bronchoalveolar lavage fluids” value was determined as 4.02 ± 0.15 µg/L and the “TGF-β in lung tissues” value is 24.10 ± 2.14 µg/L. In addition, in experiment [2], the Ashcroft scores is recorded as 1.25, the IL-1β was 27.1 pg/mL, the IL-6 came to 62.7 pg/mL and the NF-κB was determined as 25.5 pg/mL. Also, in experiment [2], the TNF-α turned out to be 87.3 pg/mL. In experiment [3], the Ashcroft scores is given as 1.12, the IL-1β came to 35.1 pg/mL, the IL-6 worked out at 66.0 pg/mL and the NF-κB is given as 23.5 pg/mL. Further, the TNF-α in experiment [3] is listed as 64.8 pg/mL.

In the case of `CC(C)Oc1ncnc2c1ncn2C(C)C` [Compound 3], in experiment [1], the “Hydroxyproline in bronchoalveolar lavage fluids” value was 0.70 ± 0.05 µg/mg, the “Hydroxyproline in lung tissues” value turned out to be 1.31 ± 0.07 µg/mg, the “TGF-β in bronchoalveolar lavage fluids” value came to 3.95 ± 0.19 µg/L and the “TGF-β in lung tissues” value is 24.15 ± 2.04 µg/L. In addition, in experiment [2], the Ashcroft scores stood at 1.18, the IL-1β amounted to 26.3 pg/mL, the IL-6 came out at 62.9 pg/mL and the NF-κB was found to be 24.3 pg/mL. In addition, in experiment [2], the TNF-α is 86.1 pg/mL. In experiment [3], the Ashcroft scores turned out to be 1.19, the IL-1β came to 36.3 pg/mL, the IL-6 was found to be 65.3 pg/mL and the NF-κB stood at 24.7 pg/mL. Further, the TNF-α in experiment [3] was 63.5 pg/mL.

As to `CC(C)Oc1ncnc2ncn(C(C)C)c12` [Compound 4], in experiment [1], the “Hydroxyproline in bronchoalveolar lavage fluids” value came out at 0.71 ± 0.08 µg/mg, the “Hydroxyproline in lung tissues” value came out at 1.29 ± 0.08 µg/mg, the “TGF-β in bronchoalveolar lavage fluids” value was 3.95 ± 0.14 µg/L and the “TGF-β in lung tissues” value was determined as 24.58 ± 1.95 µg/L. Moreover, in experiment [2], the Ashcroft scores was found to be 1.29, the IL-1β was 29.6 pg/mL, the IL-6 is 65.1 pg/mL and the NF-κB came to 27.4 pg/mL. Besides, the TNF-α in experiment [2] was determined as 89.8 pg/mL. In addition, in experiment [3], the Ashcroft scores is given as 1.50, the IL-1β is on record as 37.2 pg/mL, the IL-6 is listed as 64.5 pg/mL and the NF-κB worked out at 25.2 pg/mL. The TNF-α in experiment [3] is given as 65.9 pg/mL.

`CC(C)Oc1ncnc2nc[nH]c12` [Compound 5]: in experiment [1], the “Hydroxyproline in bronchoalveolar lavage fluids” value was determined as 0.69 ± 0.09 µg/mg, the “Hydroxyproline in lung tissues” value was found to be 1.43 ± 0.07 µg/mg, the “TGF-β in bronchoalveolar lavage fluids” value is 3.93 ± 0.18 µg/L and the “TGF-β in lung tissues” value amounted to 24.18 ± 1.65 µg/L. In addition, in experiment [2], the IL-1β is on record as 28.1 pg/mL, the IL-6 came to 65.6 pg/mL, the NF-κB was 27.7 pg/mL and the TNF-α amounted to 90.2 pg/mL. Moreover, in experiment [3], the Ashcroft scores came to 1.11, the IL-1β was 37.5 pg/mL, the IL-6 was found to be 66.4 pg/mL and the NF-κB stood at 24.3 pg/mL. In experiment [3], the TNF-α stood at 66.1 pg/mL.

The values above are taken from US20250188082A1, “Use of Hypoxanthine Compound In Preparation of Drug For Treating Pulmonary Fibrosis” (Sichuan Yiasuo Pharmaceutical Technology Co., Ltd., priority 2022, published 2025).
